In patent US12115209B2, “ROMO1-derived antimicrobial peptides including lysine substitution and variants thereof” (KOREA UNIVERSITY RESEARCH AND BUSINESS FOUNDATION, priority 2019, dated 2024):
Converted amounts (≈) assume the structure as drawn. Non-standard residues stand in square brackets, D forms with d. Residues, ends and D or L forms follow the SMILES beside them. No end group written: not given here. Nle = CCCC[C@H](N)C(=O)O

Assays:
Format in all cases: cell-based
[1] = system: Staphylococcus aureus (ATCC 29213); experiment: Minimum bactericidal concentration (MBC) assay; design: MBC Staphylococcus aureus: unit: µg/mL
Description: (§1) First, each of Pseudomonas aeruginosa (ATCC 27853) and Staphylococcus aureus (ATCC 29213) was cultured in 3% (w/v) TSB (tryptic soy broth) liquid medium at 37° C. and 200 rpm for 4 hours, and then further cultured under the same conditions for 3 hours to a concentration of 5×10^6 CFU/ml. Strain solutions were prepared by diluting each of the further cultured strains with SP (sodium phosphate; 10 mM sodium phosphate, 1% TSB) buffer to a final concentration of 2×10^5 CFU/ml.
(§2) Then, each peptide at varying concentrations (0 μg/ml to 300 μg/ml) was dispensed into each well of a 96-well microplate, and 100 μl (1×10^5 CFU/ml) of each of the prepared strain solutions was added thereto, mixed therewith, and allowed to react with the peptide in an incubator at 37° C. for 1 hour.
(§3) In addition, 30 g/L of TS (tryptic soy) and 15 g/L of agar were dissolved in distilled water and sterilized, and then 25 ml of the solution was poured onto a 100 mm round plate and solidified at room temperature for one day or more, thereby preparing a TS agar plate. 10 μl of each reaction solution of the peptide and the strain was plated on the TS agar plate at a constant size, and incubated in an incubator at 37° C. for 18 hours, and then colony formation on the plate was checked. The minimum bactericidal concentration was defined as the minimum concentration of the peptide at which no colony was formed, and the experimental results are shown in Table 1 below.

[2] = system: Pseudomonas aeruginosa (ATCC 27853); experiment: Minimum bactericidal concentration (MBC) assay; design: MBC Pseudomonas aeruginosa: unit: µg/mL
Description: as §1, §2, §3

[3] = system: Methicillin-resistant Staphylococcus aureus (MRSA, ATCC 33591); experiment: Minimum bactericidal concentration (MBC) assay; design: unit: µg/mL
Description: as §1, with “2×10^5 CFU/ml. […]” for “2×10^5 CFU/ml.”
as §3, with “checked.” for “checked. The minimum bactericidal concentration was defined as the minimum concentration of the peptide at which no colony was formed, and the experimental results are shown in Table 1 below.”
Specifically, each type of bacteria was cultured in 3% (w/v) TSB (tryptic soy broth) liquid medium at 37° C. and 200 rpm for 4 hours, and then further cultured under the same conditions for 3 hours to a concentration of 5×10^6 CFU/ml. Strain solutions were prepared by diluting each of the further cultured strains with SP buffer to a final concentration of 2×10^5 CFU/ml.
as §2, with “Then, the KU-5878” for “Then, each”
In addition, 10 μl of each reaction solution of the peptide and the strain was plated on the TS agar plate at a constant size, and incubated in an incubator at 37° C. for 18 hours, and then colony formation on the plate was checked.

CRPA = experiment: Minimum bactericidal concentration (MBC) assay; design: unit: µg/mL
[4] = system: Pseudomonas aeruginosa, Staphylococcus aureus, CRPA, MRSA; experiment: Increase in antibacterial activity (MBC) compared with KU-5878
[5] = mark = antibacterial activity increased compared with KU-5878

| Compound | MBC Staphylococcus aureus ([1]; Tables 11-21, no unit printed) | MBC Pseudomonas aeruginosa ([2]; Tables 11-21, no unit printed) | MBC MRSA ([3]; Tables 11-21, no unit printed) | MBC CRPA (CRPA; Tables 11-21, no unit printed) | Increase in activity [4, 5] | MBC Staphylococcus aureus ([1]; Staphylococcus aureus) [µg/mL] | MBC Pseudomonas aeruginosa ([2]; Pseudomonas aeruginosa) [µg/mL] | MBC MRSA ([3]; MRSA) [µg/mL] | MBC CRPA (CRPA; CRPA) [µg/mL] | Increase in activity ([4]; compared with KU-5878) |
| --- | --- | --- | --- | --- | --- | --- | --- | --- | --- | --- |
| KKMMKKGGKFG-F--IGMGIR [d 69T 71M 72A] | 2 µg/mL | 2 µg/mL | 4 µg/mL | 3 µg/mL | ◯ | – | – | – | – | – |
| KTMMQSGGTFGTFMAIGMGIRKK [Peptide 5878-KK] | 16 µg/mL | 15 µg/mL | 16 µg/mL | 16 µg/mL | ◯ | – | – | – | – | – |
| KKMMKKGGKFGTF--IG-GIR [d 71M 72A 75M] | 3 µg/mL | 2 µg/mL | 3 µg/mL | 2 µg/mL | ◯ | – | – | – | – | – |
| -KMM-KGGKF-TFM-IG-GIR [d 58K 62K 68G 72A 75M] | 15 µg/mL | 16 µg/mL | 18 µg/mL | 15 µg/mL | ◯ | – | – | – | – | – |
| KKMMKKGGKFGTFMAIGMG-R [Peptide 5878-K4-d77I] | 7 µg/mL | 4 µg/mL | 4 µg/mL | 6 µg/mL | ◯ | – | – | – | – | – |
| KT-MQSGGTFGTFMAIGMGIR [Peptide 5878-d60M] | 90 µg/mL | 90 µg/mL | 100 µg/mL | 90 µg/mL | 0 | – | – | – | – | – |
| KKMMKKGGKFG-FMAIGMGIR [Peptide 5878-K4-d69T] | 2 µg/mL | 4 µg/mL | 2 µg/mL | 3 µg/mL | ◯ | – | – | – | – | – |
| CCCC[C@H](NC(=O)CNC(=O)[C@@H](NC(=O)[C@H](C)NC(=O)[C@H](CCCC)NC(=O)[C@H](Cc1ccccc1)NC(=O)[C@@H](NC(=O)CNC(=O)[C@H](Cc1ccccc1)NC(=O)[C@@H](NC(=O)CNC(=O)CNC(=O)[C@H](CO)NC(=O)[C@H](CCC(N)=O)NC(=O)[C@H](CCCC)NC(=O)[C@H](CCCC)NC(=O)[C@@H](NC(=O)[C@@H](N)CCCCN)[C@@H](C)O)[C@@H](C)O)[C@@H](C)O)[C@@H](C)CC)C(=O)NCC(=O)N[C@H](C(=O)N[C@@H](CCCNC(=N)N)C(=O)O)[C@@H](C)CC [KU-5878-4Nle] (H-KT[Nle][Nle]QSGGTFGTF[Nle]AIG[Nle]GIR-OH; N-terminus and C-terminus assumed) | 90 µg/mL (≈ 41.8 µM) | 110 µg/mL (≈ 51.1 µM) | 100 µg/mL (≈ 46.5 µM) | 100 µg/mL (≈ 46.5 µM) | antibacterial activity of the peptide was improved | – | – | – | – | – |
| KKMMKKGGKFGGFMAIGMGIR [Peptide K4-T69G] | 2 | 2 | 3 | 2 | ◯ | – | – | – | – | – |
| d 58K 64G 72A 75M (GKFGTFM) | – | – | – | – | – | 6 | 6 | 8 | 8 | ◯ |
| KKMMKK-GKFGTF-AIGMGIR [Peptide K4-d64G-d71M] | 15 µg/mL | 15 µg/mL | 18 µg/mL | 18 µg/mL | ◯ | – | – | – | – | – |
| KTMMQSGG-FGTFMAIGMGIR [Peptide 5878-d66T] | 90 µg/mL | 90 µg/mL | 90 µg/mL | 100 µg/mL | 0 | – | – | – | – | – |
| -KMMKKGGKFGTF-AIGMGIR [Peptide K4-d58K-d71M] | 8 µg/mL | 10 µg/mL | 10 µg/mL | 10 µg/mL | ◯ | – | – | – | – | – |
| KKMMKKGG-FGTFMAIGMGIR [Peptide 5878-K4-d66K] | 6 µg/mL | 4 µg/mL | 4 µg/mL | 4 µg/mL | ◯ | – | – | – | – | – |
| d 60M 61M 71M 75M (KKGGKFGTF) | – | – | – | – | – | 1 | 2 | 2 | 2 | ◯ |
| KK-M-KGGKF-TFM-IG-GIR [d 60M 62K 68G 72A 75M] | 4 µg/mL | 4 µg/mL | 5 µg/mL | 4 µg/mL | ◯ | – | – | – | – | – |

| Compound | MBC Staphylococcus aureus ([1]; Tables 11-21, no unit printed) | MBC Pseudomonas aeruginosa ([2]; Tables 11-21, no unit printed) | MBC MRSA ([3]; Tables 11-21, no unit printed) | MBC CRPA (CRPA; Tables 11-21, no unit printed) | Increase in activity [4, 5] | MBC Staphylococcus aureus ([1]; Staphylococcus aureus) [µg/mL] | MBC Pseudomonas aeruginosa ([2]; Pseudomonas aeruginosa) [µg/mL] | MBC MRSA ([3]; MRSA) [µg/mL] | MBC CRPA (CRPA; CRPA) [µg/mL] | Increase in activity ([4]; compared with KU-5878) |
| --- | --- | --- | --- | --- | --- | --- | --- | --- | --- | --- |
| KTMMQS-GTFGTFMAIGMGIR [Peptide 5878-d64G] | 100 µg/mL | 100 µg/mL | 100 µg/mL | 110 µg/mL | 0 | – | – | – | – | – |
| KKMM-KGGKFGTF-AIG-GIR [d 62K 71M 75M] | 4 µg/mL | 3 µg/mL | 3 µg/mL | 4 µg/mL | ◯ | – | – | – | – | – |
| KKMMKKGGKFGTF-AIGMGIR [Peptide 5878-K4-d71M] | 4 µg/mL | 2 µg/mL | 4 µg/mL | 6 µg/mL | ◯ | – | – | – | – | – |
| KKMMKK-GKFGTF-AIG-GIR [d 64G 71M 75M] | 3 µg/mL | 2 µg/mL | 3 µg/mL | 3 µg/mL | ◯ | – | – | – | – | – |
| d 60M 71M 72A 75M (MKKGGKFGTF) | – | – | – | – | – | 1 | 2 | 3 | 2 | ◯ |
| KK---KGGKFGTF-AIG-GIR [d 60M 61M 62K 71M 75M] | 80 µg/mL | 80 µg/mL | 80 µg/mL | 80 µg/mL | ◯ | – | – | – | – | – |
| KKMM-KGGKFGTF-AIGMGIR [Peptide K4-d62K-d71M] | 12 µg/mL | 12 µg/mL | 12 µg/mL | 12 µg/mL | ◯ | – | – | – | – | – |
| -KMMKKGGKFGTFMAIGMGIR [5878-K4-d58K(=d59K)] | 6 µg/mL | 2 µg/mL | 2 µg/mL | 6 µg/mL | ◯ | – | – | – | – | – |
| TKMMKKGGKFGTFMAIGMGIR [Peptide K4-K58T] | 3 | 3 | 4 | 3 | ◯ | – | – | – | – | – |
| KKMM-KGGKF--FM-IG-GIR [d 62K 68G 69T 72A 75M] | 8 µg/mL | 8 µg/mL | 10 µg/mL | 8 µg/mL | ◯ | – | – | – | – | – |
| d 60M 62K 71M 75M (KGGKFGTF) | – | – | – | – | – | 2 | 2 | 3 | 3 | ◯ |
| KKMM-KGGKF-TF--IG-GIR [d 62K 68G 71M 72A 75M] | 20 µg/mL | 20 µg/mL | 25 µg/mL | 20 µg/mL | ◯ | – | – | – | – | – |
| KTMMQSGGTFGTFMAIG-GIR [Peptide 5878-d75M] | 100 µg/mL | 100 µg/mL | 110 µg/mL | 100 µg/mL | 0 | – | – | – | – | – |
| KKMMQSGGTFGTFMAIGMGIR [KU-5878-T59K] | 40 µg/mL | 50 µg/mL | 50 µg/mL | 50 µg/mL | ◯ | – | – | – | – | – |
| -KMMKK-GKFG-F--IGMGIR [d 58K 64G 69T 71M 72A] | 2 µg/mL | 2 µg/mL | 3 µg/mL | 3 µg/mL | ◯ | – | – | – | – | – |
| KK-MKKGGKFGTF-AIG-GIR [d 60M 71M 75M] | 2 µg/mL | 2 µg/mL | 2 µg/mL | 3 µg/mL | ◯ | – | – | – | – | – |
